Measured values published in patent publication US10227331B2 (priority 2015, dated 2019).
Read-outs that look alike come from different tables or passages of the source.

Tests used:
[1] = test system: Serratia marcescens expressing IMP-1 (CL5741); type: cell-based; settings: with imipenem 1 μg/ml; 95% inhibition of bacterial growth
In short: (§1)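 Colonies from overnight 35 °C blood-agar cultures were suspended in saline, diluted 1:100 into 1.1× CAMHB and exposed to test compound with or without imipenem at 1 μg/ml. After 22–24 h at 35 °C, absorbance was read to find the concentration restoring imipenem susceptibility.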

[2] = test system: Klebsiella pneumoniae expressing VIM-1 (IHMA599644); type: cell-based; settings: with imipenem 1 μg/ml; 95% inhibition of bacterial growth
In short: as §1

[3] = test system: Escherichia coli expressing NDM-1 (CLB30005, CLB30016); type: cell-based; settings: with imipenem 1 μg/ml; 95% inhibition of bacterial growth
In short: as §1

VIM-1 = VIM-1 (Pseudomonas aeruginosa (strain ATCC 15692 / DSM 22644 / CIP 104116 / JCM 14847 / LMG 12228 / 1C / PRS 101 / PAO1), UniProt A0A0F7KYQ8); experiment: biochemical; settings: CCF2-FA substrate, 2 hours at 25° C
In short: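 Fluorescence assay, CCF2-FA substrate (cephalosporin core linking 7-hydroxycoumarin to fluorescein); inhibitor + MBL + substrate, 2 h, 25° C. IC50 by 4-parameter fit, semi-log plot.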

[4] = test system: P. aeruginosa expressing IMP-1, efflux− (MB9799); experiment: Efflux: concentration of MBL inhibitor which restores susceptibility to imipenem; type: cell-based, Pseudomonas aeruginosa; settings: imipenem at 2 μg/mL, in the presence of a class A, C, D serine β-lactamase inhibitor closely related to relebactam
Excerpt: (§2) The strain background is Pseudomonas aeruginosa PAO1.

[5] = test system: P. aeruginosa expressing IMP-1, efflux+ (MB9798); type: cell-based, Pseudomonas aeruginosa; settings: for P. aeruginosa expressing IMP-1, efflux+ (MB9798) MITC95: imipenem at 2 μg/mL, in the presence of a class A, C, D serine β-lactamase inhibitor closely related to relebactam; for Efflux ratio: ratio MITC95 PA_9798/MITC95 PA_9799
Excerpt: as §2

IMP-1 = IMP-1 (Serratia marcescens, UniProt P52699); experiment: biochemical; type: biochemical
Procedure: (§3) Enzyme Activity: Determination of IC50
(§4) The Class B enzyme activities were measured in the presence of the test inhibitor in a fluorescence assay against a commercially available substrate consisting of a cephalosporin core linking 7-hydroxycoumarin to fluorescein (CCF2-FA). […] In a 384-well microplate, the test inhibitor was incubated with the metallo-β-lactamase enzyme and the substrate for 2 hours at 25° C. […] The IC50 value was determined from semi-logarithmic plots of enzyme inhibition versus inhibitor concentration, with a curve generated using a 4-parameter fit.

NDM-1 = NDM-1 (Klebsiella pneumoniae, UniProt C7C422); experiment: biochemical; type: biochemical; settings: CCF2-FA substrate, 2 hours at 25° C; read-out: NDM-1 IC50
Procedure: as §3, §4

[6] = CCF2-FA substrate, 2 hours at 25° C, read-out: IMP-1 IC50

IMP-1, sequence (P52699 whole entry, looked up, species assumed): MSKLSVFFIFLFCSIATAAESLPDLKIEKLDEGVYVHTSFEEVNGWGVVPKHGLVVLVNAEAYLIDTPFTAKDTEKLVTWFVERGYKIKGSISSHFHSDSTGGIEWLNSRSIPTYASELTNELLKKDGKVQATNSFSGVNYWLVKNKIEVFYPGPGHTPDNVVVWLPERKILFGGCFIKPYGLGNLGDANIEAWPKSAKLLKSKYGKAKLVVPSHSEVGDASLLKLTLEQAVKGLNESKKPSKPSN
NDM-1, sequence (C7C422 whole entry, looked up, species assumed): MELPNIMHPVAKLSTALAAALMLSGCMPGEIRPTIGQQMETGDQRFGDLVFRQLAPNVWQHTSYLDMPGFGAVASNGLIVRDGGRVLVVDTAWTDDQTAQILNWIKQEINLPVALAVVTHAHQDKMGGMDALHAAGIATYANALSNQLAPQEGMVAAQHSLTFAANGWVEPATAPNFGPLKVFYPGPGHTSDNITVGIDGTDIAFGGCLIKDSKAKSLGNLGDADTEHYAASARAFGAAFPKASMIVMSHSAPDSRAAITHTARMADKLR

| SMILES | Serratia marcescens expressing IMP-1 (CL5741) MITC95 [1] | Klebsiella pneumoniae expressing VIM-1 (IHMA599644) MITC95 [2] | Escherichia coli expressing NDM-1 (CLB30016) MITC95 [3] | IC50 (VIM-1) | P. aeruginosa expressing IMP-1, efflux− (MB9799) MITC95 [4] | P. aeruginosa expressing IMP-1, efflux+ (MB9798) MITC95 [5] | Efflux ratio [5] | IC50 (IMP-1; [6]) | IC50 (NDM-1) | IC50 (IMP-1) |
| --- | --- | --- | --- | --- | --- | --- | --- | --- | --- | --- |
| Cn1c(N)nc2c(-c3ccc(S(=O)(=O)C4CNC4)c(S(N)(=O)=O)c3-c3nn[nH]n3)cccc21 [Example 22, 3-(2-amino-1-methyl-1H-benzo[d]imidazol-4-yl)-6-(azetidin-3-ylsulfonyl)-2-(2H-tetrazol-5-yl)benzenesulfonamide] | 0.7813 µM | 1.563 µM | 0.3906 µM | 0.213 nM | 0.7813 µM | 1.563 µM | 2.00 | 0.432 nM | 0.164 nM |  |
| Cc1ccc(-c2ccc(S(=O)(=O)CCN)c(S(N)(=O)=O)c2-c2nn[nH]n2)c2nc(N)[nH]c12 [Example 23, 3-(2-amino-7-methyl-1H-benzo[d]imidazol-4-yl)-6-((2-aminoethyl)sulfonyl)-2-(2H-tetrazol-5-yl)benzenesulfonamide] | 0.7813 µM | 0.7813 µM | 0.3906 µM | 0.0986 nM | 0.3906 µM | 0.7813 µM | 2.00 | 0.352 nM | 0.123 nM |  |
| Nc1ccc(-c2ccc(S(=O)(=O)C3CCNCC3)c(S(N)(=O)=O)c2-c2nn[nH]n2)cn1 [Example 24, 3-(6-aminopyridin-3-yl)-6-(piperidin-4-ylsulfonyl)-2-(2H-tetrazol-5-yl)benzenesulfonamide] | 3.125 µM | 3.125 µM | 3.125 µM | 0.218 nM | 1.563 µM | 3.125 µM | 2.00 | 0.528 nM | 0.382 nM |  |
| Nc1ccc(-c2ccc(S(=O)(=O)C3CNC3)c(S(N)(=O)=O)c2-c2nn[nH]n2)cn1 [Example 25, 3-(6-aminopyridin-3-yl)-6-(azetidin-3-ylsulfonyl)-2-(2H-tetrazol-5-yl)benzenesulfonamide] | 0.6719 µM | 2.135 µM | 0.5156 µM | 0.441 nM | 1.058 µM | 2.302 µM | 2.18 | 0.862 nM | 0.532 nM |  |
| Nc1nc2cccc(-c3ccc(S(=O)(=O)C4CNC4)c(S(N)(=O)=O)c3-c3nn[nH]n3)c2s1 [Example 26, 3-(2-aminobenzo[d]thiazol-7-yl)-6-(azetidin-3-ylsulfonyl)-2-(2H-tetrazol-5-yl)benzenesulfonamide] | 3.125 µM | 3.125 µM | 1.563 µM | 0.16 nM | 1.563 µM | 3.125 µM | 2.00 | 0.66 nM | 0.0286 nM |  |
| Nc1ccc2c(-c3ccc(S(=O)(=O)C4CNC4)c(S(N)(=O)=O)c3-c3nnn[nH]3)ccnc2n1 [Example 27, 3-(7-amino-1,8-naphthyridin-4-yl)-6-(azetidin-3-ylsulfonyl)-2-(1H-tetrazol-5-yl)benzenesulfonamide] | 3.125 µM | 3.125 µM | 6.25 µM | 0.33 nM | 1.563 µM | 6.25 µM | 4.00 | 1.75 nM | 0.185 nM |  |
| Nc1nc2cccc(-c3ccc(S(=O)(=O)C4CNC4)c(S(N)(=O)=O)c3-c3nn[nH]n3)c2o1 [Example 28, 3-(2-aminobenzo[d]oxazol-7-yl)-6-(azetidin-3-ylsulfonyl)-2-(2H-tetrazol-5-yl)benzenesulfonamide] | 3.125 µM | 3.125 µM | 1.563 µM | 0.173 nM | 1.563 µM | 6.25 µM | 4.00 |  | 0.0489 nM | 1.33 nM |
| Nc1nc2ccc(-c3ccc(S(=O)(=O)C4CNC4)c(S(N)(=O)=O)c3-c3nn[nH]n3)cc2o1 [Example 29, 3-(2-aminobenzo[d]oxazol-6-yl)-6-(azetidin-3-ylsulfonyl)-2-(2H-tetrazol-5-yl)benzenesulfonamide] | 1.563 µM | 3.125 µM | 1.563 µM | 0.328 nM | 1.563 µM | 3.125 µM | 2.00 | 0.313 nM | 0.24 nM |  |
| Nc1nc2c(-c3ccc(S(=O)(=O)C4CNC4)c(S(N)(=O)=O)c3-c3nn[nH]n3)cccc2o1 [Example 30, 3-(2-aminobenzo[d]oxazol-4-yl)-6-(azetidin-3-ylsulfonyl)-2-(2H-tetrazol-5-yl)benzenesulfonamide] | 1.563 µM | 3.125 µM | 0.7813 µM | 0.409 nM | 1.563 µM | 1.563 µM | 1.00 | 0.585 nM | 0.0846 nM |  |
| Nc1nc2cc(-c3ccc(S(=O)(=O)C4CNC4)c(S(N)(=O)=O)c3-c3nn[nH]n3)ccc2o1 [Example 31, 3-(2-aminobenzo[d]oxazol-5-yl)-6-(azetidin-3-ylsulfonyl)-2-(2H-tetrazol-5-yl)benzenesulfonamide] | 1.563 µM | 3.125 µM | 1.563 µM | 0.373 nM | 1.563 µM | 6.25 µM | 4.00 | 1.37 nM | 0.337 nM |  |
| Cc1ccc(-c2ccc(S(=O)(=O)C3CNC3)c(S(N)(=O)=O)c2-c2nn[nH]n2)c2nc(N)sc12 [Example 32, 3-(2-amino-7-methylbenzo[d]thiazol-4-yl)-6-(azetidin-3-ylsulfonyl)-2-(2H-tetrazol-5-yl)benzenesulfonamide] | 0.7813 µM | 1.563 µM | 0.3906 µM | 0.106 nM | 0.7813 µM | 1.563 µM | 2.00 | 0.138 nM | 0.0331 nM |  |
| Cc1ccc(-c2ccc(S(=O)(=O)C3CNC3)c(S(N)(=O)=O)c2-c2nn[nH]n2)c2sc(N)nc12 [Example 33, 3-(2-amino-4-methylbenzo[d]thiazol-7-yl)-6-(azetidin-3-ylsulfonyl)-2-(2H-tetrazol-5-yl)benzenesulfonamide] | 1.563 µM | 3.125 µM | 1.563 µM | 0.12 nM | 1.563 µM | 3.125 µM | 2.00 | 0.296 nM | 0.0239 nM |  |
| Nc1nc2c(-c3ccc(S(=O)(=O)C4CNC4)c(S(N)(=O)=O)c3-c3nn[nH]n3)ccc(C(F)(F)F)c2s1 [Example 34, 3-(2-amino-7-(trifluoromethyl)benzo[d]thiazol-4-yl)-6-(azetidin-3-ylsulfonyl)-2-(2H-tetrazol-5-yl)benzenesulfonamide] | 0.7813 µM | 1.563 µM | 0.7813 µM | 0.175 nM | 0.7813 µM | 6.25 µM | 8.00 | 0.229 nM | 0.0713 nM |  |
